Assay results taken from patent US20050277779A1, “Antifungal and antimycobacterial basiliskamides” (priority 1998, published 2005).
≈ marks a conversion by molar mass, not a printed value.

Tests used:
[1] = system: normal human fibroblast cells; assay: Cytotoxicity testing, cytopathic effect; format: cell-based; parameters: key to Cytopathic Effect (48 hours): 1: slight change in morphology vs. control; 2: occasional rounding, vacuolization, or granularity; 3: rounding, vacuolization, detachment of 50% of cells; 4: destruction of monolayer; conditions: for Cytopathic Effect (48 hours): Human Fibroblast
Method: (§1) Cytotoxicity Testing of Basiliskamide A: Serial dilutions of basiliskamide A were prepared in cell culture medium and tested for toxicity for normal human fibroblast cells and for human tumor cell line. […] The appearance of the cells was assessed after 48 hours exposure to the compounds. Basiliskamide produced no cytotoxicity for normal human fibroblast cells at concentrations less than 100 μg/ml compared to amphotericin B (ampho) which was toxic at concentrations as low as 25 μg/ml.

[2] = system: Clinical Isolates of Candida albicans; assay: Macrobroth dilution against 7 clinical isolates
[3] = system: human tumor cell line; assay: Cytotoxicity testing, cytopathic effect; format: cell-based; parameters: key: 1: slight change in morphology vs. control; 2: occasional rounding, vacuolization, or granularity; 3: rounding, vacuolization, detachment of 50% of cells; 4: destruction of monolayer
Method: as §1

[4] = system: Trichophyton rubrum; assay: Antifungal macrobroth dilution (NCCLS M27-A); conditions: read-out: Minimal Inhibitory Concentration
[5] = system: Trichophyton rubrum; assay: Antifungal agar dilution; conditions: read-out: Minimal Inhibitory Concentration
[6] = system: Candida albicans; assay: Antifungal macrobroth dilution (NCCLS M27-A); conditions: read-out: Minimal Inhibitory Concentration
[7] = system: Mycobacterium tuberculosis; assay: microbe, parasite or virus in culture; conditions: read-out: Minimal Inhibitory Concentration
Method: (§2) Antimycobacterial Activity of the Basiliskamides: The Basiliskamides were tested for antimycobacierial activity using a standardized agar dilution method (Underlied, C B and Salfinger, S. 1995. In Manual of Clinical Microbiology, Murray, Baron, Pfaller, Tenover, Yolken (Eds.), ASM Press, page 1395-1404).

[8] = system: Aspergillus fumigatus; assay: Antifungal agar dilution
[9] = system: Candida albicans; assay: Antifungal agar dilution
[10] = system: Aspergillus fumigatus; assay: Antifungal macrobroth dilution (NCCLS M27-A); conditions: read-out: Minimal Inhibitory Concentration
[11] = system: M. avium-intracellulare; format: cell-based, Mycobacterium avium-infracellulare; conditions: agar dilution
[12] = system: Mycobacterium tuberculosis; conditions: agar dilution
Method: as §2

[13] = read-out: Minimal Inhibitory Concentration

Compound: C[C@@H]1[C@H](O)[C@@H](C)/C=C/C=C/C=C/C=C/C=C/C=C/C=C/[C@H](O[C@@H]2O[C@H](C)[C@@H](O)[C@H](N)[C@@H]2O)C[C@@H]2O[C@](O)(C[C@@H](O)C[C@@H](O)[C@H](O)CC[C@@H](O)C[C@@H](O)CC(=O)O[C@H]1C)C[C@H](O)[C@H]2C(=O)O [Amphotericin B]
- Cytopathic Effect (48 hours) ([1]; 0.78 μg/ml): 0
- Cytopathic Effect (48 hours) ([1]; 1.57 μg/ml): 0
- Cytopathic Effect (48 hours) ([1]; 3.12 μg/ml): 0
- Cytopathic Effect (48 hours) ([1]; 6.25 μg/ml): 0
- Cytopathic Effect (48 hours) ([1]; 12.5 μg/ml): 1
- Cytopathic Effect (48 hours) ([1]; 25 μg/ml): 2
- Cytopathic Effect (48 hours) ([1]; 50 μg/ml): 2
- Cytopathic Effect (48 hours) ([1]; 100 μg/ml): 4
- concentrations at which toxic ([1]; normal human fibroblast cells, 48 hours exposure): ≥ 25 µg/mL
- Minimal Inhibitory Concentration ([2]; C. albicans clinical isolate 8167): 0.5 µg/mL
- Minimal Inhibitory Concentration ([2]; C. albicans clinical isolate 8362): 0.5 µg/mL
- Minimal Inhibitory Concentration ([2]; C. albicans clinical isolate 8363): 0.5 µg/mL
- Minimal Inhibitory Concentration ([2]; C. albicans clinical isolate 8364): 0.5 µg/mL
- Minimal Inhibitory Concentration ([2]; C. albicans clinical isolate 8365): 0.5 µg/mL
- Minimal Inhibitory Concentration ([2]; C. albicans clinical isolate 8366): 0.5 µg/mL
- Minimal Inhibitory Concentration ([2]; C. albicans clinical isolate 8367): 0.5 µg/mL
- Cytopathic Effect (48 hours) ([3]; 0.78 μg/ml): 0
- Cytopathic Effect (48 hours) ([3]; 1.57 μg/ml): 0
- Cytopathic Effect (48 hours) ([3]; 3.12 μg/ml): 0
- Cytopathic Effect (48 hours) ([3]; 6.25 μg/ml): 0
- Cytopathic Effect (48 hours) ([3]; 12.5 μg/ml): 0
- Cytopathic Effect (48 hours) ([3]; 25 μg/ml): 1
- Cytopathic Effect (48 hours) ([3]; 50 μg/ml): 3
- Cytopathic Effect (48 hours) ([3]; 100 μg/ml): 4

Compound: CC[C@@H](C)[C@H](O)[C@H](C)[C@@H](C/C=C/C=C\C(N)=O)OC(=O)/C=C/c1ccccc1 [Basiliskamide B]
- MIC [4]: 4 µg/mL (≈ 10.4 µM)
- MIC [5]: 5 µg/mL (≈ 13 µM)
- MIC [6]: ≥ 32 µg/mL
- MIC [7]: 50 µg/mL (≈ 130 µM)
- activity relative to YL-03709B-A ([8]; agar dilution, from Table 5): significantly more active
- MIC [8, 13]: 5 µg/mL (≈ 13 µM)
- activity relative to YL-03709B-A ([9]; agar dilution, from Table 5): significantly more active
- MIC [9, 13]: 3.1 µg/mL (≈ 8.04 µM)
- MIC [10]: ≥ 32 µg/mL
- MIC ([11]; Mycobacterium, M. avium-intracellulare, read-out: Minimal Inhibitory Concentration): > 100 µg/mL
- activity against M. avium-intracellulare (in words) [11]: relatively inactive
- activity against M. tuberculosis (in words) [12]: have activity
